From ChEMBL document CHEMBL1153206, “Evaluation of pyrrolin-2-one derivatives synthesized by a new practical method as inhibitors of plasminogen activator inhibitor-1 (PAI-1)” (Bioorg Med Chem Lett, 2010) come the findings set out here.

The target in one assay is T1, Plasminogen activator inhibitor 1 (Homo sapiens, UniProt P05121). In words: Inhibition of human PAI1 at 15 uM.
T1 sequence (P05121 whole entry): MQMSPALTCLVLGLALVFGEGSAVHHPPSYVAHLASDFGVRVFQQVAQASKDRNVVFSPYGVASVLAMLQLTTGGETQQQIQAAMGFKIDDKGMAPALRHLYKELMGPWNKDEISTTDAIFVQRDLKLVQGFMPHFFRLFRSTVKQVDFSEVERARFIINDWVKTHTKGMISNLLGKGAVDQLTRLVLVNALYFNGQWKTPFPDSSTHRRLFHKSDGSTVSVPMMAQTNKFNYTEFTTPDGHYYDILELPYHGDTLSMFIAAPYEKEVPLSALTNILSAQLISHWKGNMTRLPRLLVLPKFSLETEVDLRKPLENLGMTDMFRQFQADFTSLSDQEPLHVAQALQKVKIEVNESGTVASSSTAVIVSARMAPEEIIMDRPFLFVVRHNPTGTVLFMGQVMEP
For orientation: inhibition means the percentage by which the read-out fell short of the control. Read a low inhibition as a weak effect. Turning to `O=C1N/C(=C\c2ccc(C(=O)O)o2)C(c2ccco2)=C1c1ccccc1`, the inhibition stood at 34%.

The target of another assay is T1, Plasminogen activator inhibitor 1. Put plainly: Inhibition of human PAI1 at 10 uM.
Turning to `O=C1N/C(=C\c2ccco2)C(c2ccco2)=C1c1ccccc1`, the inhibition was 36%.

For the next assay the target is unchanged. Put plainly: Inhibition of human PAI1.
A word on the IC50: it is the concentration needed to halve the response being measured. The low end stands for greater potency in that assay, the high end for weaker potency in that assay. `O=C(O)COc1cccc(/C=C2\NC(=O)C(c3ccccc3)=C2c2ccccc2)c1` showed a half-maximal inhibitory concentration (IC50) of 9600 nM.

Take `COc1ccc(C2=C(c3ccco3)/C(=C/c3ccc(/C=C/C(=O)O)o3)NC2=O)cc1OC`: the concentration for half-maximal inhibition (IC50) turned out to be 1100 nM.

The molecule `COc1ccc(C2=C(c3ccco3)/C(=C/c3ccncc3)NC2=O)cc1OC` gave an IC50 of 7800 nM. This IC50 lies about 7.1-fold higher than the previous one.

The molecule `COc1ccccc1C1=C(c2ccccc2)C(=O)N/C1=C\c1ccc(/C=C/C(=O)O)o1` returned an IC50 of 650 nM.

`O=C(O)/C=C/c1ccc(/C=C2\NC(=O)C(c3ccccc3)=C2c2ccco2)o1` showed a 50% inhibitory concentration (IC50) of 1500 nM.

Take `COc1ccccc1C1=C(c2ccccc2)C(=O)N/C1=C\c1ccc(C)o1`: the IC50 came to 940 nM.

`N#C/C=C/c1ccc(/C=C2\NC(=O)C(c3ccccc3)=C2c2ccco2)o1`: the IC50 was 1200 nM.

Molecule `COc1ccc(C2=C(c3cccs3)/C(=C/c3ccc(/C=C/C(=O)O)o3)NC2=O)cc1OC` registered a half-maximal inhibitory concentration (IC50) of 690 nM.
